Reference: paper PMC12516379, “Rotamer-Controlled Self-Immolative Linkers Enable Tunable Release of Neurosteroid Oxime Prodrugs” (ACS Medicinal Chemistry Letters, 2025)

Columns and labels:
[1] = Stability in PBS at room temperature via HPLC (UV); format: physicochemical; details: phosphate-buffered saline (DPBS)
Protocol: (§1) Stability studies were conducted in PBS and acetate buffer utilizing high performance liquid chromatography for potential drug storage considerations. […]
(§2) All experiments were performed in duplicate and results are presented as the average of two experimental replicates.
(§3) 1.1 Aqueous Stability in PBS and Acetate Buffer via HPLC
(§4) Material and Instrumentation
(§5) HPLC grade acetonitrile (MeCN) […] HPLC grade water (H 2O), and formic acid (FA) were purchased from Fisher Scientific.
(§6) Puradisc 4 mm PTFE (0.45 μm) syringe filters from Cytiva. Gibco ® Dulbecco’s phosphate-buffered saline (DPBS 1X, no calcium, no magnesium, pH = 7.03) and acetate buffer (pH = 5.0, 10 mM) were purchased directly from Thermo Fisher Scientific and Cytiva, respectively.
(§7) Aqueous stability experiments were performed on an Agilent 1100 HPLC equipped with an Agilent G1315B diode array detector, an Agilent G1316A heated column compartment, and a Zorbax Eclipse XDB-C18 (4.6 x 150 mm, 5 μm) column.
(§8) Procedure for Aqueous Stability Experiments
(§9) Each sample was first weighed out in two separate 2.0 mL vials using an analytical balance.
(§10) Unless otherwise specified, the test compounds were then dissolved in the aqueous media (PBS or acetate buffer) at a standard concentration of 1 mg/mL. All mixtures were subsequently sonicated for approximately 30 sec. […]
(§11) min), precipitates observed in sample solutions were filtered with a PTFE syringe filter prior to analysis. Immediately after sample preparation, injection by the HPLC autosampler was performed, which was recorded as the initial time point (t = 0 min). Solutions were then kept in the autosampler at RT and reinjected at designated intervals without additional filtration or sample modification. Remaining prodrug was defined by the area under the curve (AUC) at 254 nm. Aqueous stability was ascertained by calculating the percentage of the parent compound remaining after each time point. Linear regression of the time (x-axis) vs. ln(%remaining) (y-axis) plot afforded the rate constant k (slope = -k). Pseudo first-order half-lives were then calculated by the following equation: t1/2 = 0.693/k.

[2] = PBS stability assay at 37 °C via LC-MS/MS; format: physicochemical; details: 37 °C; for half-life at 3 µM / remaining at 2 h, 3 µM: phosphate-buffered saline (DPBS); for half-life at 3 µM: pH 7.03, PBS; for remaining at 2 h, 3 µM: pH 7.03, read-out: % Remaining @ 2h, PBS, 37 °C (Tables S25, S26); for PBS, 37 °C %rem. at 2h (Table S23) / remaining at 2 h, 3 µM: PBS
Protocol: (§12) To address this, prodrug stability was further evaluated in human plasma at 37 °C using liquid chromatography–tandem mass spectrometry (LC-MS/MS). For direct comparison, a parallel screen was conducted in PBS under identical conditions (Table ). To prevent premature degradation prior to LC-MS/MS analysis, acetonitrile containing formic acid was used as a quenching solution to acidify and stabilize the prodrugs in vials. […] This limitation in detection, along with the need for a more uniform and broadly applicable assessment across all compounds, prompted us to monitor the formation of the parent oxime as an alternative readout.
(§13) Stability experiments in human plasma and PBS were performed via liquid chromatography-tandem mass spectrometry (LC-MS/MS) to determine and compare rate of cleavage of progesterone prodrugs as well as selected allopregnanolone prodrugs (3 µM) when incubated at 37 °C. All experiments were performed in duplicate and results are presented as the average of two experimental replicates.

[3] = Plasma stability assay at 37 °C via LC-MS/MS, human plasma; format: in vitro ADME; details: for half-life at 3 µM: human, plasma;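 for all read-outs here: prodrugs at 3 µM incubated in human plasma at 37 °C, intact prodrug quantified by LC-MS/MS over time, values are means of duplicate runs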
Protocol: as §12, §13

[4] = Stability in acetate buffer pH 5.0 at room temperature via HPLC (UV); format: physicochemical
Protocol: as §1, §2, §3, §4, §5, §6, §7, §8, §9, §10, §11

[5] = Aqueous solubility by visual inspection in acetate buffer (pH 5); details: for solubility: sodium acetate buffer, pH 5, aqueous buffer, thermodynamic from solid
Protocol: For the solubility assessment, acetate buffer (pH 5) was selected as the media of choice to ensure prodrug stability during analysis.
High aqueous solubility was determined by visual inspection of 5 mg solid material in 0.5 mL
sodium acetate buffer solution. This media was selected to ensure stability of prodrugs during
dissolution in 50 mg/mL aqueous media.

[6] = pH 7.03, DPBS pH 7.03, RT, 1 mg/mL, HPLC 254 nm, read-out: t1/2 in PBS buffer at RT (Tables S1-S4) (converted)
[7] = pH 7.03, PBS, rt, HPLC (UV), read-out: Half-life (t½) PBS rt (converted)
[8] = pH 7.03, PBS, rt, read-out: t½: PBS, rt (Table S23) (converted)
[9] = 3 µM, LC-MS/MS, read-out: t1/2 in PBS at 37 °C (Tables S14-S17) (converted)
[10] = LC-MS/MS, read-out: Half-life (t½) PBS 37°C (converted)
[11] = read-out: PBS, 37 °C t½ (Table S23) (converted)
[12] = read-out: t1/2 (h) PBS, 37 °C (Tables S25, S26) (converted)
[13] = 3 µM, LC-MS/MS, read-out: t1/2 in human plasma at 37 °C (Tables S10-S13, S18) (converted)
[14] = LC-MS/MS, read-out: Half-life (t½) Plasma 37°C (converted)
[15] = read-out: Plasma, 37 °C t½ (Table S23) (converted)
[16] = pH 5, acetate buffer pH 5.0, RT, 1 mg/mL, HPLC 254 nm, read-out: t1/2 in acetate buffer at RT (Tables S5-S8) (converted)
[17] = pH 5, acetate buffer pH 5.0, rt, HPLC (UV), read-out: Half-life (t½) pH 5.0 rt (converted)
[18] = pH 5, acetate buffer pH 5.0, rt, read-out: t½: pH 5.0, rt (Table S23) (converted)

Compound | half-life at 1 mg/mL [1, 6] | half-life at 1 mg/mL [1, 7] | half-life at 1 mg/mL [1, 8] | PBS, 37 °C %rem. at 2h (Table S23) [2] | half-life at 3 µM [2, 9] | half-life at 3 µM [2, 10] | half-life at 3 µM [2, 11] | half-life at 3 µM [2, 12] | remaining at 2 h, 3 µM [2] | Plasma, 37 °C %rem. at 2h (Table S23) [3] | half-life at 3 µM [3, 13] | half-life at 3 µM [3, 14] | half-life at 3 µM [3, 15] | half-life at 1 mg/mL [4, 16] | half-life at 1 mg/mL [4, 17] | half-life at 1 mg/mL [4, 18] | solubility [5] | Stability in aqueous media during solubility assessment, in words ([5]; aqueous media (acetate buffer)) | half-life at 3 µM ([2]; unit not given (h in Table S23), read-out: t1/2 of allopregnanolone prodrugs in PBS at 37 °C (Table S22) (converted)) | half-life at 3 µM ([3]; unit not given (h in Table S23), read-out: t1/2 of allopregnanolone prodrugs in human plasma at 37 °C (Table S21) (converted))
CNCCN(C(=O)O/N=C(\C)[C@H]1CC[C@H]2[C@@H]3CCC4=CC(=O)CC[C@]4(C)[C@H]3CC[C@]12C)C(C)C.O=C(O)C(F)(F)F [20c] | 19.7 ± 0.38 h | 19.7 h | 19.7 h | 53% | 3.27 h | 3.27 h | 3.27 h | 3.27 h | 53% | 47% | 1.59 h | 1.59 h | 1.59 h | > 168 h | > 168 h | > 168 h | > 10000 µg/mL | – | – | –
CNCCN(C(=O)O/N=C(\C)[C@H]1CC[C@H]2[C@@H]3CCC4=CC(=O)CC[C@]4(C)[C@H]3CC[C@]12C)C1CCC1.O=C(O)C(F)(F)F [20d] | 11.8 ± 0.51 h | 11.8 h | 11.8 h | 44% | 2.32 h | 2.32 h | 2.32 h | 2.32 h | 44% | 59% | 2.67 h | 2.67 h | 2.67 h | > 168 h | > 168 h | > 168 h | > 10000 µg/mL | – | – | –
CNCCN(C(=O)O/N=C(\C)[C@H]1CC[C@H]2[C@@H]3CCC4=CC(=O)CC[C@]4(C)[C@H]3CC[C@]12C)C1CCCC1.O=C(O)C(F)(F)F [20e] | 10.7 ± 0.15 h | 10.7 h | 10.7 h | 34% | 1.74 h | 1.74 h | 1.74 h | 1.74 h | 34% | 76% | 4.02 h | 3.09 h | 4.02 h | > 168 h | > 168 h | > 168 h | > 10000 µg/mL | – | – | –
CNCCN(CC(C)C)C(=O)O/N=C(\C)[C@H]1CC[C@H]2[C@@H]3CCC4=CC(=O)CC[C@]4(C)[C@H]3CC[C@]12C.O=C(O)C(F)(F)F [20f] | 50.7 ± 5.11 h | – | > 24 h | 55% | 5.07 h | – | 5.07 h | 5.07 h | 55% | 95% | 4.78 h | – | 4.78 h | > 168 h | – | > 168 h | > 10000 µg/mL | – | – | –
CNCCN(CCCN1CCOCC1)C(=O)O/N=C(\C)[C@H]1CC[C@H]2[C@@H]3CCC4=CC(=O)CC[C@]4(C)[C@H]3CC[C@]12C.O=C(O)C(F)(F)F [20i] | 31.2 ± 1.48 h | – | 31.2 h | 77% | 5.45 h | – | 5.45 h | 5.45 h | 77% | 57% | 2.09 h | – | 2.09 h | > 168 h | – | > 168 h | > 10000 µg/mL | – | – | –
CNCCN(CCN1CCOCC1)C(=O)O/N=C(\C)[C@H]1CC[C@H]2[C@@H]3CCC4=CC(=O)CC[C@]4(C)[C@H]3CC[C@]12C.O=C(O)C(F)(F)F [20j] | 21.77 ± 0.19 h | 21.8 h | 21.8 h | – | – | – | – | – | – | – | – | – | – | 99.4 h | 99.4 h | 99.4 h | > 10000 µg/mL | – | – | –
CNCCN(CCn1ccnc1)C(=O)O/N=C(\C)[C@H]1CC[C@H]2[C@@H]3CCC4=CC(=O)CC[C@]4(C)[C@H]3CC[C@]12C [20k] | 47 ± 2.84 h | – | 47 h | 70% | 5.99 h | – | 5.99 h | 5.99 h | 70% | 68% | 3.16 h | – | 3.16 h | > 168 h | – | > 168 h | > 10000 µg/mL | – | – | –
C/C(=N\OC(=O)N(CCN)CCN)[C@H]1CC[C@H]2[C@@H]3CCC4=CC(=O)CC[C@]4(C)[C@H]3CC[C@]12C [20w] | 10.1 ± 0.41 h | – | 10.1 h | – | – | – | – | – | – | – | – | – | – | > 168 h | – | > 168 h | > 10000 µg/mL | – | – | –
CNCCN(CCNC)C(=O)O/N=C(\C)[C@H]1CC[C@H]2[C@@H]3CCC4=CC(=O)CC[C@]4(C)[C@H]3CC[C@]12C.Cl.Cl [20x] | 1.51 ± 0.05 h | – | 1.51 h | – | – | – | – | – | – | – | – | – | – | 72.2 h | – | > 168 h | – | poor stability | – | –
C/C(=N\OC(=O)N(C)C[C@@H]1CCCN1)[C@H]1CC[C@H]2[C@@H]3CCC4C[C@H](O)CC[C@]4(C)[C@H]3CC[C@]12C (some centres unmarked) [21l] | – | – | – | 16% | – | 0.94 h | 0.94 h | – | – | 2% | – | 0.36 h | 0.36 h | – | – | – | > 5000 µg/mL | – | 0.94 h | 0.36 h
